Experimental data published in ChEMBL document CHEMBL1123798, “Stereocontrolled syntheses for the six diastereomeric 1,2-dihydroxy-4,5-diaminocyclohexanes: PtII complexes and P-388 antitumor properties” (J Med Chem, 1987).

Experiments:
Format in all cases: functional, organism-based
Settings in all cases: Mus musculus
P388 [1] = assay: Median survival time against P388 leukemia in CDF1 mice at a dose of 1.5 mg/kg administered intraperitoneally; […]; parameters: dose 1.5 mg/kg
P388 [2] = assay: Number of treated mice to that of control against P388 leukemia in CDF1 mice at a dose of 6 mg/kg administered intraperitoneally; active; parameters: dose 6 mg/kg
P388 [3] = assay: Number of treated mice to that of control against P388 leukemia in CDF1 mice at a dose of 3 mg/kg administered intraperitoneally; active; parameters: dose 3 mg/kg
P388 [4] = assay: Median survival time against P388 leukemia in CDF1 mice at a dose of 3 mg/kg administered intraperitoneally; […]; parameters: dose 3 mg/kg
P388 [5] = assay: Number of treated mice to that of control against P388 leukemia in CDF1 mice at a dose of 1.5 mg/kg administered intraperitoneally; active; parameters: dose 1.5 mg/kg
P388 [6] = assay: Median survival time against P388 leukemia in CDF1 mice at a dose of 6 mg/kg administered intraperitoneally; […]; parameters: dose 6 mg/kg

CISPLATIN
MST (P388 [1]): 15.5
T/C (P388 [2]): 249
T/C (P388 [3]): 188
MST (P388 [4]): 18.5
T/C (P388 [5]): 158
MST (P388 [6]): 24.5
